{
  "source": "patent US20170281508A1",
  "about": "“Peptides and Their Use in the Treatment of Skin” (AVON PRODUCTS, INC., priority 2014, published 2017)",
  "system": "Human dermal fibroblast cells",
  "test": "Pro-collagen I production in human dermal fibroblast cells (HTRF human pro-collagen I kit)",
  "assay_type": "cell-based",
  "conditions": "peptide concentration 0.001% in DMEM media without FBS, 48 h treatment, percent change relative to vehicle control",
  "protocol": "Human dermal fibroblast cells were grown in a 96 well plate in DMEM media (available from Corning, N.Y.) supplemented with 10% Fetal Bovine Serum (FBS) and L-glutamine (0.07×10^5 cells/plate). After reaching about 75% confluence, cells were transferred into DMEM media without FBS and incubated for 4-6 hours. Next, cells were treated with peptide of Formula I at 0.00001%, 0.0001%, 0.001% final concentration in DMEM media without FBS for 48 h. After treatment the media were collected, and cell viability was measured using MTT. The amount of secreted collagen was tested in the media using HTRF human pro-collagen I kit (Cisbio Inc, Bedford, Mass.).\nResults are summarized in Table 1 below as percent change of pro-collagen I production relative to vehicle control: […]",
  "note": "Peptide text beside a SMILES is read from it.",
  "data": [
    {"compound": "CCC(C)C(NC(=O)C(N)CCC(N)=O)C(=O)NC(CC(C)C)C(=O)NC(CO)C(=O)NC(CCCCN)C(=O)NC(CC(C)C)C(=O)NC(CCCNC(=N)N)C(=O)NC(CC(C)C)C(=O)O", "note": "(stereo not drawn) [QILSKLRL (SEQ ID NO: 1), Gln-Ile-Leu-Ser-Lys-Leu-Arg-Leu] (H-QILSKLRL-OH; configuration not given here)", "values": [
      {"measurement": "Increase in Pro-Collagen I Production", "result": "+10-30%"},
      {"measurement": "Increase in Pro-Collagen I Production", "setting": "listed as peptide of Formula I", "result": "10-30%"}
    ]}
  ]
}
